Laboratory results: patent US20110086759A1, “CHEMICAL COMPOUNDS” (SYNGENTA CROP PROTECTION, INC., priority 2007, published 2011)

Key:
Type in all cases: in vivo
[1] = tested on: Amaranthus retoflexus (AMARE); experiment: Post-emergence biological efficacy, glasshouse pot test; conditions: Amaranthus retroflexus, 312 h; Rate 1,000 g/ha; post-emergence spray; evaluated after 13 days (100=total damage to plant; 0=no damage to plant); read-out: Percentage damage caused to weed species, post-emergence, AMARE
Procedure, shortened: (§1)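 Pot-grown weeds were sprayed 8 days after sowing with test compound in acetone/water (50:50) with 0.5% Tween 20 at 1000 or 250 g/ha. Glasshouse at 24/16° C day/night, 14 h light, 65% humidity. Damage scored 0-100 (100 = total damage) after 13 days.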

[2] = tested on: Ipomea hederaceae (IPOHE); experiment: as above; conditions: Ipomoea hederacea, 312 h; Rate 1,000 g/ha; post-emergence spray; evaluated after 13 days (100=total damage to plant; 0=no damage to plant); read-out: Percentage damage caused to weed species, post-emergence, IPOHE
Procedure, shortened: as §1

[3] = tested on: Solanum nigrum (SOLNI); experiment: as above; conditions: 312 h, Rate 1,000 g/ha, post-emergence spray, evaluated after 13 days (100=total damage to plant; 0=no damage to plant), read-out: Percentage damage caused to weed species, post-emergence, SOLNI
Procedure, shortened: as §1

[4] = tested on: Alopecurus myosuroides (ALOMY); experiment: as above; conditions: 312 h, Rate 1,000 g/ha, post-emergence spray, evaluated after 13 days (100=total damage to plant; 0=no damage to plant), read-out: Percentage damage caused to weed species, post-emergence, ALOMY
Procedure, shortened: as §1

[5] = tested on: Echinochloa crus-galli (ECHCG); experiment: as above; conditions: 312 h, Rate 1,000 g/ha, post-emergence spray, evaluated after 13 days (100=total damage to plant; 0=no damage to plant), read-out: Percentage damage caused to weed species, post-emergence, ECHCG
Procedure, shortened: as §1

[6] = tested on: Setaria faberi (SETFA); experiment: as above; conditions: 312 h, Rate 1,000 g/ha, post-emergence spray, evaluated after 13 days (100=total damage to plant; 0=no damage to plant), read-out: Percentage damage caused to weed species, post-emergence, SETFA
Procedure, shortened: as §1

[7] = tested on: Amaranthus retoflexus (AMARE); experiment: Pre-emergence biological efficacy, glasshouse pot test; conditions: Amaranthus retroflexus, 312 h; pre-emergence, rate 1,000 g/ha, evaluated after 13 days (100=total damage to plant; 0=no damage); read-out: Percentage damage caused to weed species, AMARE
Procedure, shortened: (§2)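 Glasshouse pot test: spray on soil one day after sowing, 1000 or 250 g/ha. Conditions 24/16 °C day/night, 14 h light, 65% humidity. Plant damage scored 0–100 at 13 days.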

[8] = tested on: Ipomea hederaceae (IPOHE); experiment: as above; conditions: Ipomoea hederacea, 312 h; pre-emergence, rate 1,000 g/ha, evaluated after 13 days (100=total damage to plant; 0=no damage); read-out: Percentage damage caused to weed species, IPOHE
Procedure, shortened: as §2

[9] = tested on: Solanum nigrum (SOLNI); experiment: as above; conditions: 312 h, pre-emergence, rate 1,000 g/ha, evaluated after 13 days (100=total damage to plant; 0=no damage), read-out: Percentage damage caused to weed species, SOLNI
Procedure, shortened: as §2

[10] = tested on: Alopecurus myosuroides (ALOMY); experiment: as above; conditions: 312 h, pre-emergence, rate 1,000 g/ha, evaluated after 13 days (100=total damage to plant; 0=no damage), read-out: Percentage damage caused to weed species, ALOMY
Procedure, shortened: as §2

[11] = tested on: Echinochloa crus-galli (ECHCG); experiment: as above; conditions: 312 h, pre-emergence, rate 1,000 g/ha, evaluated after 13 days (100=total damage to plant; 0=no damage), read-out: Percentage damage caused to weed species, ECHCG
Procedure, shortened: as §2

[12] = tested on: Setaria faberi (SETFA); experiment: as above; conditions: 312 h, pre-emergence, rate 1,000 g/ha, evaluated after 13 days (100=total damage to plant; 0=no damage), read-out: Percentage damage caused to weed species, SETFA
Procedure, shortened: as §2

Structure (SMILES) | pest or weed control at 1000 g/ha [1] [%] | pest or weed control at 1000 g/ha [2] [%] | pest or weed control at 1000 g/ha [3] [%] | pest or weed control at 1000 g/ha [4] [%] | pest or weed control at 1000 g/ha [5] [%] | pest or weed control at 1000 g/ha [6] [%] | pest or weed control at 1000 g/ha [7] [%] | pest or weed control at 1000 g/ha [8] [%] | pest or weed control at 1000 g/ha [9] [%] | pest or weed control at 1000 g/ha [10] [%] | pest or weed control at 1000 g/ha [11] [%] | pest or weed control at 1000 g/ha [12] [%]
COC(=O)c1nc(C2CC2)nc(N(C)Cc2ccccc2Cl)c1Cl [Compound 5-61, 5-Chloro-4-[N-(2-chlorophenyl-methyl)-N-methyl-amino]-2-cyclopropyl-6-methoxycarbonyl-pyrimidine] | 100 | 90 | 90 | 20 | 80 | 80 | 70 | 70 | 20 | 30 | 40 | 40
COC(=O)c1nc(C2CC2)nc(N(C)Cc2cccc(Cl)c2)c1Cl [Compound 5-62, 5-Chloro-4-[N-(3-chlorophenyl-methyl)-N-methyl-amino]-2-cyclo-propyl-6-methoxy-carbonylpyrimidine] | 100 | 90 | 80 | 20 | 30 | 40 | 100 | 60 | 20 | 0 | 0 | 10
COC(=O)c1nc(C2CC2)nc(N(C)Cc2ccc(Cl)cc2)c1Cl [Compound 5-63, 5-Chloro-4-[N-(4-chlorophenyl-methyl)-N-methyl-amino]-2-cyclo-propyl-6-methoxy-carbonylpyrimidine] | 100 | 90 | 80 | 30 | 40 | 70 | 100 | 70 | 30 | 10 | 0 | 20
COC(=O)c1nc(C2CC2)nc(N(C)Cc2ccccc2F)c1Cl [Compound 5-64, 5-Chloro-2-cyclo-propyl-4-[N-(2-fluorophenylmethyl)-N-methyl]-6-methoxy-carbonylpyrimidine] | 100 | 100 | 90 | 20 | 80 | 90 | 70 | 80 | 70 | 10 | 20 | 10
COC(=O)c1nc(C2CC2)nc(N(C)Cc2cccc(F)c2)c1Cl [Compound 5-65, 5-Chloro-2-cyclopropyl-4-[N-(3-fluorophenylmethyl)-N-methyl-amino]-6-methoxy-carbonylpyrimidine] | 100 | 90 | 100 | 30 | 70 | 80 | 100 | 100 | 90 | 20 | 10 | 20
COC(=O)c1nc(C2CC2)nc(N(C)Cc2ccc(F)cc2)c1Cl [Compound 5-66, 5-Chloro-2-cyclopropyl-4-[N-(4-fluorophenylmethyl)-N-methyl-amino]-6-methoxy-carbonylpyrimidine] | 100 | 100 | 90 | 20 | 40 | 80 | 100 | 70 | 60 | 30 | 40 | 60
COC(=O)c1nc(C2CC2)nc(N(C)Cc2ccc(Br)cc2)c1Cl [Compound 5-69, 4-[N-(4-Bromo-phenylmethyl)-N-methyl-amino]-5-chloro-2-cyclo-propyl-6-methoxy-carbonylpyrimidine] | 100 | 80 | 80 | 30 | 50 | 70 | 70 | 50 | 20 | 10 | 10 | 0
COC(=O)c1nc(C2CC2)nc(N(C)Cc2ccc(C)cc2)c1Cl [Compound 5-73, 5-Chloro-2-cyclopropyl-6-methoxycarbonyl-4-[N-methyl-N-(4-methylphenyl)-methylamino]-pyrimidine] | 100 | 100 | 70 | 10 | 10 | 50 | 80 | 30 | 20 | 0 | 0 | 0
COC(=O)c1nc(C2CC2)nc(N(C)Cc2cccc(C(F)(F)F)c2)c1Cl [Compound 5-76, 5-Chloro-2-cyclopropyl-6-methoxycarbonyl-4-[N-methyl-N-(3-trifluoromethyl-phenylmethyl)-amino]pyrimidine] | 100 | 90 | 90 | 40 | 50 | 80 | 80 | 60 | 40 | 10 | 20 | 30
COC(=O)c1nc(C2CC2)nc(N(C)Cc2ccc(C(F)(F)F)cc2)c1Cl [Compound 5-77, 5-Chloro-2-cyclopropyl-6-methoxycarbonyl-4-[N-methyl-N-(4-trifluoromethyl-phenyl)methyl-amino]pyrimidine] | 100 | 100 | 100 | 20 | 40 | 50 | 90 | 20 | 20 | 0 | 0 | 0
